PubChem BioAssay (NCI)
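Where inhibition never reached the appropriate level, the endpoint shown equals the highest concentration tested. Otherwise, values were interpolated linearly from a five-concentration, 48-hour dose response in 96-well plates. GI50: concentration for 50% inhibition of growth. At the TGI there is no net growth.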 Where a SMILES comes first, the peptide text is derived from it. Side-chain parts run from the residue outwards. The star is where a group is joined. Cbz = O=C(OCc1ccccc1)*; Boc = CC(C)(C)OC(=O)*

Key:
Assay in all cases: growth of human tumour cells (NCI), 48 h
[1] = system: NCI-H460 lung
[2] = system: 786-0 renal
[3] = system: T-47D breast
[4] = system: A498 renal
[5] = system: DU-145 prostate
[6] = system: NCI-H226 lung
[7] = system: HT29 colon
[8] = system: OVCAR-5 ovarian
[9] = system: HOP-62 NSCLC
[10] = system: LOX IMVI melanoma

Row | SMILES | TGI [1] [µM] | TGI [2] [µM] | TGI [3] [µM] | TGI [4] [µM] | TGI [5] [µM] | TGI [6] [µM] | TGI [7] [µM] | TGI [8] [µM] | TGI [9] [µM] | TGI [10] [µM] | GI50 [1] [µM] | GI50 [3] [µM] | GI50 [4] [µM] | GI50 [5] [µM] | GI50 [6] [µM] | GI50 [7] [µM] | GI50 [8] [µM] | GI50 [9] [µM] | GI50 [10] [µM]
1 | Nc1ccccc1OCCCOc1ccccc1N | > 100 | > 100 | > 100 | > 100 | > 100 | > 100 | > 100 | > 100 | > 100 | > 100 | – | – | – | – | – | – | – | – | –
2 | CCN(CC)C1Oc2cc3c(cc2C(c2cccc(OC)c2O)C1C)OCO3 (stereo unspecified) | 21.9 | 26.3 | > 86 | 7.24 | > 66.7 | 13.3 | 27.5 | 48.5 | 21.3 | 22.2 | – | – | – | – | – | – | – | – | –
3 | O=C1C=C(O)c2c(O)ccc(O)c2C1=O | > 100 | > 100 | > 100 | > 100 | > 100 | > 100 | > 100 | > 100 | > 100 | > 100 | – | – | – | – | – | – | – | – | –
4 | O=c1c2cc(I)ccc2nc(SCc2nnco2)n1Cc1ccccc1 | > 100 | > 100 | > 100 | > 100 | > 100 | > 100 | > 100 | > 100 | > 100 | > 100 | – | – | – | – | – | – | – | – | –
5 | CS(=O)(=O)OCC1CCCCCCCCCCC12SCCCS2 (stereo unspecified) | > 100 | > 100 | > 100 | > 100 | > 100 | > 100 | > 100 | > 100 | > 100 | > 100 | – | – | – | – | – | – | – | – | –
6 | CC(=O)O[C@H]1C[C@](C)(O)[C@@]23CC([C@@H](OC(=O)C(C)(C)O)[C@@H](OC(C)=O)C2(COC(=O)c2ccccc2)[C@H]1OC(C)=O)C(C)(C)O3 (stereo partly specified) | > 100 | > 100 | > 100 | > 100 | > 100 | – | > 100 | > 100 | > 100 | > 100 | – | – | – | – | – | – | – | – | –
7 | COc1ccc(C2=NNC(c3cc4cc(Br)ccc4nc3Cl)C2)cc1 (stereo unspecified) | > 25 | > 25 | > 25 | > 25 | > 25 | 11.8 | > 25 | > 25 | – | – | – | – | – | – | – | – | – | – | –
8 | CC(=O)c1[nH]c(Nc2ccc(C)cc2)c(C(=S)Nc2ccccc2)c1N | 31.9 | 34.3 | 37.2 | 28.8 | 34.2 | 32.4 | > 100 | > 100 | 42.1 | 33.3 | – | – | – | – | – | – | – | – | –
9 | C[C@]12CC[C@H](O)CC1=CC[C@@H]1[C@@H]2CC[C@]2(C)C(=O)/C(=C/c3ccc([N+](=O)[O-])cc3)C[C@@H]12 | > 100 | 10.8 | 61.6 | 30.4 | 44.9 | 10.2 | > 100 | 50.9 | 17 | 22.5 | – | – | – | – | – | – | – | – | –
10 | Cn1c(COC(=O)NC2CCCCC2)c(COC(=O)NC2CCCCC2)c2ccc3cc(C=O)ccc3c21 | – | > 100 | > 100 | > 100 | > 100 | > 100 | > 100 | > 100 | – | > 100 | – | – | – | – | – | – | – | – | –
11 | CN(C)CC1CCCc2ccccc2C1=O (stereo unspecified) | 39.9 | 2.8 | 17 | 49.6 | 10.7 | 48.8 | 3.38 | 33.5 | 33.7 | 4.49 | – | – | – | – | – | – | – | – | –
12 | COc1cc(/C(=C2/O[C@@H]([C@H]3COC(C)(C)O3)[C@H]3OC(C)(C)O[C@@H]23)c2ccc3c(c2)OCO3)cc(OC)c1OC | > 25 | – | > 25 | > 25 | > 25 | > 25 | > 25 | > 25 | > 25 | > 25 | > 25 | 14.5 | > 25 | > 25 | > 25 | > 25 | 4.85 | > 25 | > 25
13 | O=C1c2cccnc2-c2nccc3c2c1nc1ccc(Br)cc13 | 0.125 | 0.0986 | 0.552 | 0.223 | 0.0577 | 0.0639 | 0.723 | 0.324 | 0.194 | 0.0806 | – | – | – | – | – | – | – | – | –
14 | C[N+]1([O-])[C@H]2CC(OC(=O)[C@H](CO)c3ccccc3)C[C@H]1[C@H]1O[C@H]12 (stereo partly specified) | – | > 100 | > 100 | > 100 | > 100 | > 100 | > 100 | > 100 | > 100 | > 100 | – | – | – | – | – | – | – | – | –
15 | O=C(CC(c1ccccc1)C(C(=O)c1ccncc1)C(CC(=O)c1ccncc1)c1ccccc1)c1ccncc1 (stereo unspecified) | > 100 | > 100 | > 100 | > 100 | > 100 | > 100 | > 100 | > 100 | > 100 | > 100 | – | – | – | – | – | – | – | – | –
16 | CO[C@]12CC(=O)C3(C(C[C@H]4CC5CC[C@H]6C[C@@H](OC(C)=O)CC[C@]6(OC(C)=O)C5C[C@@]43C)C1)C1C[C@H]3[C@@H]4CC[C@H]5C[C@@H](OC(C)=O)CC[C@]5(OC(C)=O)[C@H]4CC[C@]3(C)C12 (stereo partly specified) | > 100 | > 100 | > 100 | > 100 | > 100 | – | > 100 | > 100 | > 100 | > 100 | – | – | – | – | – | – | – | – | –
17 | COc1cc([C@@H]2c3cc4c(cc3[C@@H](c3c(O)cc(O)c5c3O[C@H](c3ccc(O)c(O)c3)[C@H](OC(=O)c3cc(O)c(O)c(O)c3)C5)[C@H]3COC(=O)[C@H]23)OCO4)cc(OC)c1O | > 100 | > 100 | > 100 | > 100 | > 100 | – | 65.3 | > 100 | > 100 | > 100 | – | – | – | – | – | – | – | – | –
18 | O=C(c1ccccc1)c1c(C(F)(F)F)n([O-])c2cc(F)c(F)cc2[n+]1=O | 8.53 | 1.03 | > 36.7 | 7.19 | 8.71 | 5.69 | > 100 | 2.98 | 2.26 | – | – | – | – | – | – | – | – | – | –
19 | COc1cccc([C@@H]2CC(=O)c3cc4c(cc3N2)OCO4)c1 | – | > 100 | > 100 | > 100 | > 100 | > 100 | – | > 100 | > 100 | > 100 | – | – | – | – | – | – | – | – | –
20 | CC(C)(C)OC(=O)NC(CCCCNC(=O)CNC(=O)OCc1ccccc1)C(=O)NC(CCCCNC(=O)CNC(=O)OCc1ccccc1)C(=O)NC(CCCCNC(=O)CNC(=O)OCc1ccccc1)C(=O)NC(CCCCNC(=O)CNC(=O)OCc1ccccc1)C(=O)O (stereo unspecified) (Boc-K([Gly-Cbz])K([Gly-Cbz])K([Gly-Cbz])K([Gly-Cbz])-OH; configuration not given here) | > 100 | > 100 | > 100 | – | > 100 | > 100 | > 100 | > 100 | > 100 | > 100 | – | – | – | – | – | – | – | – | –
